The source of these data is patent US6906239B2, “Plant preparations” (priority 2002, dated 2005).

In experiment [1] the test system is white-rot fungus. Kind of experiment: White-rot fungus cultured on corn stalk fibrous extract from treated corn (Example 11). Format: cell-based, Phanerochaete chrysosporium. The following applies: for Staining intensity Chitin / Staining intensity Lignin: corn stalk, fungus cultured three months, scale 9 to 0. The source says:
(§1) Phanerochaete chrysosporium, a lignin degrading fungus, was maintained on potato dextrose agar (PDA). Lignin degradation studies employed culturing the fungus in a liquid mineral salt medium that contained treated plant materials, such as bagasse from a plant that had been treated with a modified precursor preparation. The bagasse in the medium comprised the sole source of organic carbon for support of fungal growth. One inoculum “loop,” a standard tool used in the preparation and culturing of microbes, was used to inoculate the medium.
(§2) Staining intensity ratings were subjectively established on ten-point rating scales and used as qualitative rankings within each individual example. Unless otherwise indicated, staining for lignin present in bagasse was performed by both the phlorgluciol and hypochlorite/sulfite techniques and was rated subjectively on a ten-step scale, from most intense staining (9) to no staining (0). Staining for chitin present in the bagasse was also subjectively rated on a ten-step scale from most intense staining (9) to no staining (0). All staining techniques were performed in triplicate, unless otherwise indicated.
Glyphosate (Sigma Aldrich) is commercially available as a no-till herbicide for use with corn. In this example glyphosate at the one-fourth the label rate (i.e., approximately 3 oz per acre) was added to 3-chlorocinnamic acid. The label rate of glyphosate was 12 oz per acre. The glyphosate was applied through a spray treatment that included two sprays, both one month after seedling emergence and once at tasseling. The spray application was applied with a silicone spreader/sticker until runoff. White-rot fungus was cultured on potato dextrose agar and then use to inoculate a medium containing the corn stalk fibrous extract as described in Example 2 above. These samples were cultured under appropriate conditions for three months.

The test system of experiment [2] is white-rot fungus. Kind of experiment: White-rot fungus cultured on bagasse from treated sugar cane, lignin and chitin staining (Examples 5, 6, 8). The following applies: for Staining intensity Chitin / Staining intensity Lignin: fungus cultured three months, scale 9 to 0. It counts as cell-based, Phanerochaete chrysosporium.
Source text: as §1, §2
Technique 1: Place sections in a drop of saturated, aqueous phloroglucinol in 20% HCl. Lignin appears as deep red (9) to light purple (1).
Technique 2: Place sections in commercial hypochlorite bleach for five minutes and transfer to a 1% solution of sodium sulfite. Lignin appears as a bright red cherry color (9) that fades to brown (1) in approximately 1 hour.
Technique: Sections are autoclaved in saturated KOH for 10 minutes to convert chitin to chitosan. Washed sections are placed in a few drops of iodine-potassium iodide solution (2 gm KI in 100 ml water and add 0.2 gm I2) in 1% sulfuric acid. Abundant amounts of chitosans appear dark violet (9) and a lower concentration as a light blue stain (1). Care should be exercised since cellulose may also stain under these conditions. For this reason, if necessary, cellulose can be removed by flooding with Schweitzer's reagent (saturated copper hydroxide in ammonium hydroxide) prior to iodine-potassium iodide treatment.
In similar fashion to Example 4, sugar cane plants were treated at four weeks and also at two weeks before harvest, with five grams of the modified precursors described above, by drenching the sugar cane roots. Bagasse samples were then obtained and approximately 10 g used in the following experiment.
In this experiment, white-rot fungus was cultured on the bagasse samples for three months. Specifically, P. chrysosporium was maintained on PDA and then added to a liquid mineral salt medium that contained the treated plant materials, such as treated bagasse. One inoculum “loop,” a standard tool used in the preparation and culturing of microbes, was used to inoculate the bagasse-containing medium. The medium with the bagasse comprised the only sole source of organic carbon for support of fungal growth. After culturing the fungus on the bagasse stored in the liquid medium, the bagasse was collected from the medium and then stained for lignin and chitin.
Sugar cane plants were treated with either 0.5 g, 5 g or 50 g of 2,6-difluorocinnamic acid or 3-cholorcinnamic acid four weeks prior to harvest and also at two weeks prior to harvest. Thus, the total dosage of each modified precursor is either 1 g, 10 g, or 100 g. White-rot fungus was then cultured on the extracted bagasse samples for three months and lignin and chitin staining performed.
Glyphosine (Sigma Aldrich) is commercially available as a sugarcane ripener for use several weeks before harvest. In this example, glyphosine, at one-fourth the label rate (i.e., approximately 4 oz per acre), was added to 3-chlorocinnamic acid during drench treatments of 5 gm, both four weeks and two weeks prior to harvest. The label rate of glyphosine was 16 oz. White-rot fungus was cultured on the bagasse samples for three months according to the methodology described in Example 2.

Experiment [3] deals with Soil microorganisms. Put plainly: In situ soil degradation of corn stalk from treated corn plants (Example 10). The following applies: two sprays of 20 mM, buried in soil six months, scale 9 to 0.
Source text: Plants were cultivated in a greenhouse environment and modified precursors and control precursors were applied via a foliar spray. Treated plants were permitted to naturally mature, senesce and dry down. After dry down several centimeter long sections were taken from nodal and from internodal regions at the base of the stalk for further in situ soil treatment. After treatment, thin sections were made, stained and visually inspected. Observations were made with a dissecting or a light microscope.
(§3) Fertile sandy loam topsoil in a cultivated field that had been used for the sequential cultivation of corn for the prior two years constituted the in situ environment. The field was located in the town Ingleside on the Eastern Shore of Maryland. The tissue burial and recovery work was completed in multiple marked plots.
as §2
Treatment of corn plants included two sprays, both one month after seedling emergence and once at tasseling with a spray application of 20 mM of one of the chemicals listed in Table 7, i.e., cinnamic acid, 2,6-difluorocinnamic acid, 3-chlorocinnamic acid or 2-chloro-4-hydroxybenzaldehyde with a silicone spreader/sticker until runoff. Dried stalk samples were buried in soil, as described above, for six months from the March through August time period. All staining was done in quintuplicate.

Experiment [4] deals with Soil microorganisms. Put plainly: In situ soil degradation of bagasse from treated sugar cane (Example 9). The following applies: 10 grams drench at 4 and 2 weeks before harvest, buried in soil six months, scale 9 to 0.
Source text: as §3, §2
Sugar cane plants were treated four weeks and two weeks before harvest with drench applications of 10 grams of one of the chemicals listed in Table 6, i.e., cinnamic acid, 2,6-difluorocinnamic acid, 3-chlorocinnamic acid or 2-chloro-4-hydroxybenzaldehyde. Approximately, 10 g of extracted bagasse samples were mixed equally with sand, and the mixture placed into a nylon sack and buried approximately 6 inches below the ground. The samples were buried in such a fashion for six months from the March through August time period. All staining was done in quintuplicate.

Another experiment has as its system White rot fungus. Kind of experiment: White rot fungus cultured on plant samples treated with fungicidal candidates, lignin and chitin staining (Example 12 ii). Format: cell-based, Phanerochaete chrysosporium. The following applies: 100 ppm four weeks before harvest, fungus cultured three months, scale 9 to 0. As for the experimental part: as §2
Tulip tree, White Pine and corn plants were treated with fungicidal candidates four weeks before harvest. White rot fungus (Phanerochaete chrysosporium) was then cultured on the plant samples for three months. Staining and quantification of lignin and chitin present in plant materials was performed as described above.

Where [5] appears, read: Example 8, 10 gm with Glyphosine at one-fourth the label rate.
Setting [6] is: Example 8, 10 gm without glyphosine.
Where [7] appears, read: sugar cane bagasse, 5 g drench at 4 and 2 weeks before harvest.
Setting [8] is: total dosage 1 gm (0.5 g at 4 and 2 weeks before harvest).
[9] abbreviates: total dosage 10 gm (5 g at 4 and 2 weeks before harvest).
Where [10] appears, read: total dosage 100 gm (50 g at 4 and 2 weeks before harvest).
[11] abbreviates: two sprays of 20 mM with Glyphosate at one-fourth the label rate.
Setting [12] is: two sprays of 20 mM, without glyphosate.

Turning to `O=C(O)CNCP(=O)(O)O` [glyphosate, Glyphosate, reference compound], in the experiment on white-rot fungus [1] (glyphosate at one-fourth the label rate added to the spray, corn), the “Effect on effectiveness of halogen-substituted precursor molecules in reducing lignin biodegradation by white-rot fungi” value was “increases the effectiveness”.

As for `O=Cc1ccc(O)cc1Cl` [2-Chloro-4-hydroxybenzaldehyde], the “Staining intensity Chitin” value worked out at 2 in the experiment on white-rot fungus [2] (setting [5]); 3 with white-rot fungus [2] (setting [6]); 4 with white-rot fungus [2] (setting [7]); 3 with Soil microorganisms [3]; 3 in the experiment on Soil microorganisms [4]. For the same compound, the “Staining intensity Lignin” value in the experiment on white-rot fungus [2] (setting [5]) is 7; with white-rot fungus [2] (setting [6]) it was 6; in the experiment with white-rot fungus [2] (setting [7]) it was 3; in the experiment on Soil microorganisms [3], 6; with Soil microorganisms [4], 6.

On to `O=C(O)C=Cc1cccc(Cl)c1` [3-Cholorcinnamic Acid, 3-Cholorcinnamic acid], for which the “Staining intensity Chitin” value with white-rot fungus [2] (setting [5]) came out at 2; with white-rot fungus [2] (setting [6]), 3; with white-rot fungus [2] (setting [7]), 7; in the experiment with white-rot fungus [2] (setting [8]) it was 4; in the experiment with white-rot fungus [2] (setting [9]) it was 2; with white-rot fungus [2] (setting [10]) it was 1. The “Staining intensity Chitin” value is recorded as 4 in the experiment on Soil microorganisms [3], 3 in the experiment with Soil microorganisms [4], 2 in the experiment on white-rot fungus [1] (setting [11]) and 3 in the experiment on white-rot fungus [1] (setting [12]). Moreover, the “Staining intensity Lignin” value in the experiment on white-rot fungus [2] (setting [5]) turned out to be 7; in the experiment with white-rot fungus [2] (setting [6]), 5; in the experiment on white-rot fungus [2] (setting [7]), 5; with white-rot fungus [2] (setting [8]) it was 4; with white-rot fungus [2] (setting [9]), 6; in the experiment with white-rot fungus [2] (setting [10]), 7. Besides, the “Staining intensity Lignin” value in the experiment with Soil microorganisms [3] came out at 7; in the experiment with Soil microorganisms [4] it was 6; in the experiment on white-rot fungus [1] (setting [11]) it was 7; in the experiment on white-rot fungus [1] (setting [12]) it was 6.

Consider `c1ccc2[nH]c(-c3cscn3)nc2c1` [Thiabendazole, 2-(4-thiazolyl)benzimidazole], for which the “Intensity of Chitin Stain” value with White rot fungus (Corn plant) turned out to be 1; with White rot fungus (Tulip tree) it was 1; with White rot fungus (White Pine tree), 2. Besides, the “Intensity of Lignin Stain” value in the experiment on White rot fungus (Corn plant) is 9; in the experiment on White rot fungus (Tulip tree), 9; in the experiment on White rot fungus (White Pine tree) it was 8.

Consider `O=C(O)C(F)=Cc1ccccc1` [alpha-Fluorocinnamic Acid], for which the “Staining intensity Chitin” value in the experiment on white-rot fungus [2] (setting [7]) was 6.

Take `O=Cc1cc(Br)c(O)c(Br)c1` [3,5-Dibromo-4-hydroxybenzaldehyde]: in the experiment on white-rot fungus [2] (setting [7]), the “Staining intensity Chitin” value worked out at 6 and the “Staining intensity Lignin” value was 5.

In the case of `CCCC1COC(Cn2cncn2)(c2ccc(Cl)cc2Cl)O1` (centres unmarked) [Propiconazole, 1-[[2-(2,4-dichlorophenyl)-4-propyl-1,3-dioxolan-2-yl]methyl]-1H-1,2,4-triazole], the “Intensity of Chitin Stain” value in the experiment on White rot fungus (Corn plant) came out at 1; in the experiment on White rot fungus (Tulip tree), 2; in the experiment on White rot fungus (White Pine tree), 1. For the same compound, the figures for the “Intensity of Lignin Stain” value in the experiment with White rot fungus (Corn plant), in the experiment with White rot fungus (Tulip tree) and in the experiment with White rot fungus (White Pine tree) were 8, 7 and 8, respectively.

Turning to `O=C(O)CN(CP(=O)(O)O)CP(=O)(O)O` [Glyphosine, reference compound], in the experiment on white-rot fungus [2] (glyphosine at one fourth the label rate added to the modified precursor, sugar cane), the “Effect on recalcitrance of lignin to biodegradation by white-rot fungi conferred by halogen-substituted precursors” value is reported as “increases the effectiveness”.

For `O=C(O)C=Cc1c(F)cccc1F` [2,6-Difluorocinnamic Acid], the “Staining intensity Chitin” value is listed as 3 with white-rot fungus [2] (setting [7]); 5 with white-rot fungus [2] (setting [8]); 3 in the experiment on white-rot fungus [2] (setting [9]); 2 with white-rot fungus [2] (setting [10]); 6 with Soil microorganisms [3]; 4 in the experiment on Soil microorganisms [4]. The “Staining intensity Lignin” value with white-rot fungus [2] (setting [7]) was 5; in the experiment with white-rot fungus [2] (setting [8]) it was 4; in the experiment on white-rot fungus [2] (setting [9]) it was 6; in the experiment with white-rot fungus [2] (setting [10]), 7; with Soil microorganisms [3], 5; in the experiment on Soil microorganisms [4], 5.

Consider `COC(=O)Nc1nc2ccccc2[nH]1` [Carbendazim, methyl-2-benzimidazole carbamate], for which the “Intensity of Chitin Stain” value in the experiment with White rot fungus (Corn plant) is 2; in the experiment on White rot fungus (Tulip tree), 1; with White rot fungus (White Pine tree) it was 2. Besides, the “Intensity of Lignin Stain” value in the experiment on White rot fungus (Corn plant) stood at 8; in the experiment with White rot fungus (Tulip tree), 8; with White rot fungus (White Pine tree) it was 7.

With `O=C(O)C=Cc1ccccc1` [Cinnamic Acid, reference compound], the “Staining intensity Chitin” value in the experiment with white-rot fungus [2] (setting [7]) amounted to 9; with Soil microorganisms [3], 9; with Soil microorganisms [4], 8. The “Staining intensity Lignin” value with white-rot fungus [2] (setting [7]) is 1; in the experiment on Soil microorganisms [3], 0-1; in the experiment with Soil microorganisms [4] it was 1.
